Reference: patent publication US20110034418A1, “PHARMACEUTICAL COMPOSITION WITH BISPHOSPHONATE” (priority 2008, published 2011)

Biological target: T1, Human farnesyl pyrophosphate synthase (FPPS, Swissprot ID: P14324) (Homo sapiens, UniProt P14324)
T1 construct: made in house
T1 sequence (P14324 67-419 limits assumed): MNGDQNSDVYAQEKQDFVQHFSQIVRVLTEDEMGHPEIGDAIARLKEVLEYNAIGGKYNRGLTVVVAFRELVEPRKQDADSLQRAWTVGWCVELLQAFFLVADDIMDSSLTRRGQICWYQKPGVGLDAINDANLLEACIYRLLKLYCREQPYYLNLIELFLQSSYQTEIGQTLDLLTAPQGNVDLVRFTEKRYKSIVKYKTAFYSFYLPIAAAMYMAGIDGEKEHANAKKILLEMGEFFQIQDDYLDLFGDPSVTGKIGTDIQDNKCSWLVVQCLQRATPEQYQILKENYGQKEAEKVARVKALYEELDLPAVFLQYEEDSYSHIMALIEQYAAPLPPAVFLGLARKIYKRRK
Assay: label-free LC/MS/MS assay for farnesyl pyrophosphate synthase (FPPS), cell-free in vitro
Format: biochemical
Conditions: 5 min pre-incubation, GPP/IPP substrates, FPP quantified by LC/MS/MS
Method: For example, in a cell-free in vitro assay the superiority of compounds of the formula I over compounds already known can be shown. Briefly, the reaction proceeds in the presence of enzyme and an inhibitor of the formula I, and the reaction product (farneysyl pyrophosphate) is quantified by LC/MS/MS.
In detail, the inhibitor and enzyme are pre-incubated before adding the substrates
The assay is a label-free assay for farnesyl pyrophosphate synthase (FPPS) based on LC/MS/MS. This method quantifies in-vitro untagged farnesyl pyrophosphate (FPP) and is suitable for high throughput screening (HTS) to find inhibitors of FPPS and for the determinations of IC50 values of candidate compounds. The analysis time is 2.0 minutes with a total cycle time of 2.5 minutes. The analysis can be formatted for 384-well plates resulting in an analysis time of 16 hours per plate.
Pentanol, methanol, and isopropyl alcohol are HPLC grade and obtained from Fisher Scientific. DMIPA is from Sigma-Aldrich. Water is from an in-house Milli-Q system. […]
The Multiple Reaction Monitoring (MRM) transitions monitored are 381−>79− for FPP and 397−>159− for FSPP at a collision energy of 22 eV and a collision cell pressure of 2.1×10^−3 mbar of Ar. […]
The total cycle time per sample is 2.5 minutes. Since the analysis is formatted for 384-well plates, a plate is analyzed in 16 hours. […]

- IC50: 2.4 to 3.1 nM
SMILES: CCc1cncn1CC(O)(P(=O)(O)O)P(=O)(O)O [Reference-Example 2, [2-(5-Ethyl-imidazol-1-yl)-1-hydroxy-1-phosphono-ethyl]-phosphonic acid]
